Measurements taken from patent US4351948A, “Imidazole hydrazone derivatives” (priority 1980, dated 1982).
Structures can show the parent of a compound that is named as a salt. Where two headings read alike, the source gives them in different places.

Tests used:
[1] = system: platelet thromboxane generation; assay: Inhibition of platelet thromboxane generation (TxB2, collagen-stimulated human platelet rich plasma); assay type: cell-based; details: Homo sapiens, 10 min, read-out: Activity IC50 (50% inhibition of TxB2 generation)
Experimental: The compounds used according to the invention as anti-thrombotics were tested by the following method for their ability to inhibit platelet thromboxane generation.
Human venous blood was collected from healthy male donors, who had denied any medication in the previous 14 days. Nine volumes of blood were mixed with one volume of 3.24% trisodium citrate. The citrated blood was centrifuged at 160 g for 10 mins. at 22° C. to obtain platelet rich plasma (PRP). The platelets were then counted on a Coulter counter, and the platelet count was adjusted to 200,000 per μl with plasma.
The PRP was then dispensed as aliquots into micro-Eppendorf tubes, maintained at 37° C. in a dry bath. The compounds dissolved either in saline, ethanol, or DMSO were added in duplicate to the PRP aliquots to produce final concentrations of 0.3, 3 and 30 μg/ml. When ethanol and DMSO were used as the vehicle, triplicate controls containing the same percentage of vehicle as the test compounds were made. The final concentration or organic solvent was never more than 0.1%, which in previous experiments had no effect on TxB2 generation.
Following a 10 min. incubation with test compounds or vehicle, collagen was added to produce a final concentration of 8 μg/ml. The tubes were then whirly-mixed for 15 seconds and replaced in the dry bath for a further 10 minutes, controls received saline instead of collagen. The reaction was then stopped by rapid centrifugation, 15,000 g for 3 mins. The plasma was removed and frozen at -29° C. until assayed.
Briefly, 100 μl aliquots, in tricine buffered saline+0.8% gelatin (pH 8.0) of the following were incubated together for 1 hour at 37° C.: thromboxane Tx B2 (plasma extract, spiked plasma extract or standards 20 to 20,000 pg/ml), ^3 H--TxB2 (approximately 15,000 dpm) and anti-TxB2 antiserum (0.5 μg/100 μl). The free and protein bound ^3 H--TxB2 were separated by ammonium sulphate precipitation followed by centrifugation. 300 μl of the supernatant was added to an aqueous scintillation fluid, and the radioactivity present was counted in a liquid scintillation counter. The binding of ^3 H--TxB2 in the absence of added TxB2 was approximately 55%. The least amount of TxB2 to be detected accurately in the plasma was 0.08 ng/ml. Cross reactivity with other prostaglandins is less than 0.005% except PGD2 which is 1%.
Thus plasma samples were assayed to give a rough approximation of TxB2 content. The plasma was then appropriately diluted and assayed in duplicate to give accurate values.
The amount of TxB2 generated by the collagen was calculated by subtracting mean values obtained for the saline stimulated platelets from the mean values obtained from the collagen stimulated platelets. Then the amount of TxB2 generated in the presence of each concentration of compound was expressed as a % control and dose response curves were then constructed to determine the concentration of compound which produced a 50% inhibition.

in vivo = details: male mice, 7 day; for LD12.5: p.o.
C. sporogenes ATCC 19404 = assay: Antianaerobic activity, MIC by standard broth dilution method (Table II); assay type: cell-based; details: Clostridium sporogenes, ATCC19404, 24 h, read-out: Minimal Inhibitory Concentration (MIC)
Experimental: The activity of the compounds identified in the Table II below was tested for antianaerobic activity against one strain of Bacteroides fragilis, one strain of Bacteroides uniformis, one strain of Clostridium sporogenes and one strain of Trichomonas vaginalis as the test organism. The methods used involved determining the minimum inhibitory concentration by the standard broth dilution method. The values for metronidazole (2-methyl-5-nitro-1H-imidazole-1-ethanol) are given above for reference purposes. For convenience the compounds are referred to by an internal reference number (an HC number) and this is correlated with the number of the Example wherein its production is described.

B. fragilis ATCC 23745 = assay: as above; assay type: cell-based; details: Bacteroides fragilis, ATCC23745, 24 h, read-out: Minimal Inhibitory Concentration (MIC)
Experimental: (§1) The activity of the compounds identified in the Table II below was tested for antianaerobic activity against one strain of Bacteroides fragilis, one strain of Bacteroides uniformis, one strain of Clostridium sporogenes and one strain of Trichomonas vaginalis as the test organism. The methods used involved determining the minimum inhibitory concentration by the standard broth dilution method. […] For convenience the compounds are referred to by an internal reference number (an HC number) and this is correlated with the number of the Example wherein its production is described.

B. uniformis ATCC 8492 = assay: as above; assay type: cell-based; details: Bacteroides uniformis, ATCC8492, 24 h, read-out: Minimal Inhibitory Concentration (MIC)
Experimental: as §1

T. vaginalis ATCC 30001 = assay: as above; assay type: cell-based; details: Trichomonas vaginalis, ATCC30001, 24 h, read-out: Minimal Inhibitory Concentration (MIC)
Experimental: as §1

SMILES	IC50 [1] [nM]	LD12.5 (in vivo) [mg/kg]	LD50 at 168 h (in vivo; mouse, in vivo, iv, read-out: LD50) [mg/kg]	MIC (C. sporogenes ATCC 19404; Test 1) [µg/mL]	MIC (C. sporogenes ATCC 19404; Test 2) [µg/mL]	MIC (C. sporogenes ATCC 19404; Test 3) [µg/mL]	MIC (B. fragilis ATCC 23745; Test 1) [µg/mL]	MIC (B. fragilis ATCC 23745; Test 2) [µg/mL]	MIC (B. fragilis ATCC 23745; Test 3) [µg/mL]	MIC (B. uniformis ATCC 8492; Test 1) [µg/mL]	MIC (B. uniformis ATCC 8492; Test 2) [µg/mL]	MIC (B. uniformis ATCC 8492; Test 3) [µg/mL]	MIC (T. vaginalis ATCC 30001; Test 1) [µg/mL]	MIC (T. vaginalis ATCC 30001; Test 2) [µg/mL]	MIC (T. vaginalis ATCC 30001; Test 3) [µg/mL]
O=[N+]([O-])c1ccc(NN=C(Cn2ccnc2)c2ccccc2Cl)c([N+](=O)[O-])c1 [HC 336, 1-(2-chlorophenyl)-2-(1H-imidazol-1-yl) ethanone, 2,4-dinitrophenylhydrazone, hydrochloride]	900														
C[C@@H]1[C@H](O)[C@@H](C)/C=C/C=C/C=C/C=C/C=C/C=C/C=C/[C@H](O[C@@H]2O[C@H](C)[C@@H](O)[C@H](N)[C@@H]2O)C[C@@H]2O[C@](O)(C[C@@H](O)C[C@@H](O)[C@H](O)CC[C@@H](O)C[C@@H](O)CC(=O)O[C@H]1C)C[C@H](O)[C@H]2C(=O)O [Amphotericin B]		280													
Nc1nc(=O)[nH]cc1F [5-Fluorocytosine]		500	500												
COc1ccc(C(Cn2ccnc2)=NNc2cc(Cl)ccc2Cl)cc1.Cl [HC-464, 1-(4-methoxyphenyl)-2-(1H-imidazol-1-yl)ethanone, 2,5-dichlorophenylhydrazone, hydrochloride]				2.5	5	2.5	2.5	5	5	2.5	2.5	2.5	10	50	50
CC(C(=NNc1ccc(Cl)cc1Cl)c1ccc(Cl)cc1)n1ccnc1 (stereo not drawn) [HC-433, 1(4-chlorophenyl)-2-(1H-imidazol-1-yl) propanone, 2,4-dichlorophenylhydrazone, hydrochloride]				1	2.5	2.5	1	2.5	2.5	0.5	5	2.5	75	50	50
Clc1ccc(NN=C(Cn2ccnc2)c2ccc(Cl)cc2Cl)c(Cl)c1 [HC-380, 1-(2,4-dichlorophenyl)-2-(1H-imidazol-1-yl) ethanone, 2,4-dichlorophenylhydrazone, hydrochloride]				10	2.5	2.5	10	2.5	2.5	10	2.5	2.5	50	25	25
Cl.Clc1cccc(Cl)c1NN=C(Cn1ccnc1)c1ccc(Br)s1 [HC-466, 1-(5-bromothien-2-yl)-2-(1H-imidazol-1-yl)ethanone, 2,6-dichlorophenylhydrazone, hydrochloride]				5	5	5	1	5	5	1	5	5	50	50	50
Clc1ccc(NN=C(Cn2ccnc2)c2cc(Cl)ccc2Cl)c(Cl)c1 [HC-525, 1-(2,5-dichlorophenyl)-2-(1H-imidazol-1-yl) ethanone, 2,4-dichlorophenylhydrazone, hydrochloride]				2.5	2.5	2.5	2.5	2.5	2.5	2.5	2.5	2.5	50	50	50
Cl.Clc1cc(Cl)c(NN=C(Cn2ccnc2)c2ccccc2Cl)c(Cl)c1 [HC-523, 1-(2-chlorophenyl)-2-(1H-imidazol-1-yl)ethanone, 2,4,6-trichlorophenylhydrazone, hydrochloride]				2.5	2.5	5	7.5	5	7.5	5	2.5	5	50	50	50
Cl.FC(F)(F)c1cccc(C(Cn2ccnc2)=NNc2c(Cl)cccc2Cl)c1 [HC474, 1-(3-trifluoromethylphenyl)-2-(1H-imidazol-1-yl)ethanone, 2,6-dichlorophenylhydrazone, hydrochloride]				7.5	5	5	5	7.5	7.5	10	5	7.5		50	50
Cl.FC(F)(F)c1ccc(C(Cn2ccnc2)=NNc2c(Cl)cccc2Cl)cc1 [HC-438, 1-(4-trifluoromethylphenyl)-2-(1H-imidazol-1-yl)ethanone, 2,6-dichlorophenylhydrazone, hydrochloride]				2.5	7.5	2.5	5	7.5	5	5	5	5	25	50	75
